The source of these data is patent US20110319362A1, “STAT3 LIGANDS AND THERAPEUTIC USES THEREOF” (priority 2008, published 2011).

Like-named read-outs stand apart in the source and are kept apart here. Some results are limits rather than exact numbers.

One assay has as its target T1, STAT3 protein (Homo sapiens, UniProt P40763).
T1 construct: human STAT3 protein (residues 122-722) fused to His-tag; His-tag
Kind of assay: In vitro competitive STAT3 binding assay (fluorescence polarization). The text has this:
To quantitatively determine the binding affinities of STAT3 inhibitors to STAT3 protein, a sensitive and quantitative in vitro binding assay was developed based upon fluorescence polarization (FP) method. For this FP assay, 5-carboxyfluorescein (5-Fam) was coupled to a phosphopeptide (phospho-Tyr-Leu-Pro-Gln-Thr-Val-amide) with two beta-alanine and one glycine residues as the spacer between 5-Fam and the phosphopeptide to obtain 5-Fam-beta-Ala-beta-Ala-Gly-phospho-Tyr-Leu-Pro-Gln-Thr-Val-amide as the fluorescently tagged tracer, which was named as STT2 peptide. […] The recombinant human STAT3 protein (residues 122-722) fused to His-tag was stable and soluble.
Competitive binding experiments were carried out using 150 nM of STAT3 protein and 5 nM of STT2 peptide with different concentrations of a tested STAT3 inhibitor. For each experiment, two controls were included. One control contained STAT3 protein and STT2 peptide, and the second control contained STT2 peptide only. The polarization values were measured after 2-3 hours of incubation using an ULTRA READER (Tecan U.S. Inc., Research Triangle Park, N.C.). IC50 values, the inhibitor concentration at which 50% of the fluorescently tagged STT2 peptide is displaced by STAT3 inhibitors, was determined from a plot using nonlinear least-squares analysis using GRAPHPAD PRISM software (GraphPad Software, Inc., San Diego, Calif.). […]

Assay [1] relates to MDA-MB-231 cancer cell line. The assay can be described thus: Cell growth assay (WST-8). It is filed as cell-based. The settings on record: Homo sapiens, MDA-MB-231, 96 h; WST-8, 4 days; read-out: Inhibition of cell growth IC50, MDA-MB-231 cancer cell line. On the procedure:
(§1) The effect of STAT3 compounds on cell growth was evaluated by a WST-8 [2-(2-methoxy-4-nitrophenyl)-3-(4-nitrophenyl)-5-(2,4-disulfophenyl)-2H-tetrazolium, monosodium salt assay (Dojindo Molecular Technologies, Inc). Cells (3000-4000 cells in each well) were cultured in 96-well tissue culture plates in medium (200 μL) containing various concentrations of STAT3 compounds for 4 days. At the end of incubation, WST-8 dye (20 μL) was added to each well and incubated for an additional 1-3 h, and then the absorbance was measured in a microplate reader (Molecular Devices) at 450 nm. Cell growth inhibition was evaluated as the ratio of the absorbance of the sample to that of the control.

Assay [2] relates to MDA-MB-468 cancer cell line. The assay can be described thus: Cell growth assay (WST-8). It is filed as cell-based. The settings on record: Homo sapiens, MDA-MB-468, 96 h; WST-8, 4 days; read-out: Inhibition of cell growth IC50, MDA-MB-468 cancer cell line. The protocol: as §1
Setting [3] is: FP competitive binding, fluorescently tagged STT2 peptide tracer, read-out: Binding affinities to STAT3 IC50.

T1 sequence (P40763 122-722): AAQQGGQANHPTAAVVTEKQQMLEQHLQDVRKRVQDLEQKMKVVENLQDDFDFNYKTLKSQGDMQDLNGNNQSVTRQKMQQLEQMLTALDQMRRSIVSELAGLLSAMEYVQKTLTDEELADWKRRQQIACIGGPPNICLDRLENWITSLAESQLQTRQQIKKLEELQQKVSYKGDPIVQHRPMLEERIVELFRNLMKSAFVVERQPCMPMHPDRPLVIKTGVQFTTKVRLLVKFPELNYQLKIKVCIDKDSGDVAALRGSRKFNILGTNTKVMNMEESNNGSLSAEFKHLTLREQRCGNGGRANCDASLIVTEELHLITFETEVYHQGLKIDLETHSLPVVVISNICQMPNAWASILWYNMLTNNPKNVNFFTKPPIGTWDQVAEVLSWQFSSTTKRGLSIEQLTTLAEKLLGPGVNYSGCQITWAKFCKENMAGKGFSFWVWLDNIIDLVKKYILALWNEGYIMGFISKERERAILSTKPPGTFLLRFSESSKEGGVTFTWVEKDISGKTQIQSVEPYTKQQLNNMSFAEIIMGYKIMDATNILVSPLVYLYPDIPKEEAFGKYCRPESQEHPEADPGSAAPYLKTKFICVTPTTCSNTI

Turning to `N[C@@H](Cc1ccc(OP(=O)(O)O)cc1)C(=O)N[C@H]1CCCCC2CC[C@@H](C(=O)N[C@@H](CCC(=O)NC(c3ccccc3)(c3ccccc3)c3ccccc3)C(=O)NCc3ccccc3)N2C1=O` (stereo partly drawn), the IC50 (on STAT3 protein (setting [3]); in assay [1]; in assay [2]) was below 10 µM throughout.

With `NC(=O)CC[C@H](NC(=O)[C@@H]1CCC2CCCC[C@H](NC(=O)[C@@H](N)Cc3ccc(OP(=O)(O)O)cc3)C(=O)N21)C(=O)NCc1ccccc1` (stereo partly drawn), the IC50 was below 1 µM on STAT3 protein, above 20 µM in assay [1] and above 100 µM in assay [2].

Consider `COP(=O)(OC)Oc1ccc(C[C@H](N)C(=O)N[C@H]2CCCCC3CC[C@@H](C(=O)N[C@@H](C)C(=O)NCc4ccccc4)N3C2=O)cc1` (stereo partly drawn), for which the figures for the IC50 (at STAT3 protein; in assay [1]; in assay [2]) were above 100 µM, above 50 µM and above 100 µM, respectively.

On to `CN[C@H](Cc1ccc(OCP(=O)(O)O)cc1)C(=O)N[C@H]1CCCCC2CC[C@@H](C(=O)N[C@@H](Cc3c[nH]cn3)C(=O)NCc3ccccc3)N2C1=O` (stereo partly drawn), for which the figures for the IC50 (at STAT3 protein (setting [3]); in assay [1]; in assay [2]) were below 100 µM, above 100 µM and above 100 µM, respectively.

As for `CN(C)[C@@H](Cc1ccc(OP(=O)(O)O)cc1)C(=O)N[C@H]1CCCCC2CC[C@@H](C(=O)N[C@@H](CNC(=N)N)C(=O)NCc3ccccc3)N2C1=O` (stereo partly drawn), the IC50 at STAT3 protein (setting [3]) was below 100 µM; in assay [1], above 50 µM; in assay [2] it was above 100 µM.

In the case of `CC(=O)N1CCC2CC[C@@H](C(=O)N[C@@H](CCC(N)=O)C(=O)NCc3ccccc3)N2C(=O)[C@@H](NC(=O)[C@@H](N)Cc2ccc(OP(=O)(O)O)cc2)C1` (stereo partly drawn), the concentration for half-maximal inhibition (IC50) at STAT3 protein (setting [3]) was below 5 µM; in assay [1], above 50 µM; in assay [2], above 100 µM.

As to `CN[C@@H](Cc1ccc(OP(=O)(O)O)cc1)C(=O)N[C@H]1CCCCC2CC[C@@H](C(=O)N[C@@H](Cc3c[nH]cn3)C(=O)NCc3ccccc3)N2C1=O` (stereo partly drawn), the IC50 on STAT3 protein (setting [3]) is below 30 µM; in assay [1] it was above 50 µM; in assay [2] it was above 100 µM.

For `CC[C@H](NC(=O)[C@@H]1CCC2CCCC[C@H](NC(=O)[C@H](Cc3ccc(OP(=O)(O)O)cc3)NC(=O)OCc3ccccc3)C(=O)N21)C(=O)NCc1ccccc1` (stereo partly drawn), the 50% inhibitory concentration (IC50) on STAT3 protein is above 10 µM; in assay [1], above 30 µM; in assay [2] it was above 30 µM.

Regarding `CCCCCCCCCCCCCCCCNC(=O)[C@H](CCC(N)=O)NC(=O)[C@@H]1CCC2CCCC[C@H](NC(=O)[C@@H](N)Cc3ccc(OP(=O)(O)O)cc3)C(=O)N21` (stereo partly drawn), the IC50 is above 5 µM at STAT3 protein (setting [3]), below 50 µM in assay [1] and below 50 µM in assay [2].

For the compound `NCCOCCOCCOCCOCCC(=O)N[C@@H](Cc1ccc(OP(=O)(O)O)cc1)C(=O)N[C@H]1CCCCC2CC[C@@H](C(=O)N[C@@H](CCC(N)=O)C(=O)NCc3ccccc3)N2C1=O` (stereo partly drawn), the IC50 at STAT3 protein (setting [3]) is below 5 µM; in assay [1] it was above 100 µM; in assay [2], above 100 µM.

Regarding `CCCCCCCCNC(=O)[C@H](CCC(N)=O)NC(=O)[C@@H]1CCC2CCCC[C@H](NC(=O)[C@H](Cc3ccc(OP(=O)(O)O)cc3)NC)C(=O)N21` (stereo partly drawn), the 50% inhibitory concentration (IC50) on STAT3 protein (setting [3]) is below 5 µM; in assay [1], above 100 µM; in assay [2], above 100 µM.

Turning to `CCCCCCCCCCCCNC(=O)[C@H](CCC(N)=O)NC(=O)[C@@H]1CCC2CCCC[C@H](NC(=O)[C@H](Cc3ccc(OP(=O)(O)O)cc3)NC)C(=O)N21` (stereo partly drawn), the IC50 at STAT3 protein (setting [3]) is below 5 µM; in assay [1] it was below 30 µM; in assay [2], below 20 µM.

Consider `CCCCCCCCCCCCCCCCCCCCNC(=O)[C@H](CCC(N)=O)NC(=O)[C@@H]1CCC2CCCC[C@H](NC(=O)[C@H](Cc3ccc(OP(=O)(O)O)cc3)NC)C(=O)N21` (stereo partly drawn), for which the values for the half-maximal inhibitory concentration (IC50) (at STAT3 protein (setting [3]); in assay [1]; in assay [2]) were below 5 µM, below 30 µM and below 30 µM, respectively.

`NC(=O)CC[C@H](NC(=O)[C@@H]1CCC2CCCC[C@H](NC(=O)CCc3ccc(OP(=O)(O)O)cc3)C(=O)N21)C(=O)NCc1ccccc1` (stereo partly drawn): the results for the IC50 (at STAT3 protein; in assay [1]; in assay [2]) were below 5 µM, above 100 µM and above 100 µM, respectively.

In the case of `CCCCCCCCCCCCCCCCNC(=O)[C@H](CCC(N)=O)NC(=O)[C@@H]1CC[C@@H]2CCCC[C@H](NC(=O)[C@H](Cc3ccc(OP(=O)(O)O)cc3)NC(=O)CCN3CCOCC3)C(=O)N21`, the IC50 is below 5 µM at STAT3 protein, below 40 µM in assay [1] and below 40 µM in assay [2].

`CCCCCCCCCCCCCCCCNC(=O)[C@H](CCC(N)=O)NC(=O)[C@@H]1CC[C@@H]2CCCC[C@H](NC(=O)[C@H](Cc3ccc(OP(=O)(O)O)cc3)NC(=O)CCN3CCN(C)CC3)C(=O)N21`: the half-inhibitory concentration (IC50) was below 5 µM on STAT3 protein, above 20 µM in assay [1] and above 20 µM in assay [2].

On to `CCCCCCCCCCCCCCCCN1CCN(CCC(=O)N[C@@H](Cc2ccc(OP(=O)(O)O)cc2)C(=O)N[C@H]2CCCCC3CC[C@@H](C(=O)NCCCC(O)CO)N3C2=O)CC1` (stereo partly drawn), for which the IC50 at STAT3 protein (setting [3]) is below 10 µM; in assay [1], below 20 µM; in assay [2] it was below 20 µM.

Take `CCCCCCCCCCCCCCCCN1CCN(CCC(=O)N[C@@H](Cc2ccc(OP(=O)(O)O)cc2)C(=O)N[C@H]2CCCCC3CC[C@@H](C(=O)NCCc4cnc[nH]4)N3C2=O)CC1` (stereo partly drawn): the half-inhibitory concentration (IC50) (on STAT3 protein (setting [3]); in assay [1]; in assay [2]) was below 10 µM throughout.

Regarding `CCCCCCCCCCCCCCCCN1CCN(CCC(=O)N[C@@H](Cc2ccc(OP(=O)(O)O)cc2)C(=O)N[C@H]2CCCCC3CC[C@@H](C(=O)N[C@@H](CCC(N)=O)C(=O)NCc4ccccc4)N3C2=O)CC1` (stereo partly drawn), the IC50 on STAT3 protein (setting [3]) was below 1 µM; in assay [1] it was below 10 µM; in assay [2], below 10 µM.

In the case of `CCCCCCCCCCCCCCCCN1CCN(CCC(=O)N[C@@H](Cc2ccc(OP(=O)(O)O)cc2)C(=O)N[C@H]2CCCCC3CC[C@@H](C(=O)N[C@H](CO)Cc4c[nH]cn4)N3C2=O)CC1` (stereo partly drawn), the IC50 is below 5 µM at STAT3 protein (setting [3]), below 20 µM in assay [1] and below 20 µM in assay [2].

Turning to `CCCCCCCCCCCCCCCCN1CCN(CCC(=O)N[C@@H](Cc2ccc(OP(=O)(O)O)cc2)C(=O)N[C@H]2CCCCC3CC[C@@H](C(=O)N[C@@H](Cc4c[nH]cn4)C(=O)NCc4ccccc4)N3C2=O)CC1` (stereo partly drawn), the IC50 was below 5 µM on STAT3 protein (setting [3]), below 30 µM in assay [1] and below 30 µM in assay [2].

Take `CCCCCCCCCCCCCCCCN1CCN(CCC(=O)N[C@@H](Cc2ccc(OP(=O)(O)O)cc2)C(=O)N[C@H]2CCCCC3CC[C@@H](C(=O)NCCc4nnc[nH]4)N3C2=O)CC1` (stereo partly drawn): the concentration for half-maximal inhibition (IC50) at STAT3 protein (setting [3]) was below 5 µM; in assay [1], below 20 µM; in assay [2] it was below 20 µM.

On to `CCCCCCCCCCCCCCCCN1CCN(CCC(=O)N[C@@H](Cc2ccc(OP(=O)(O)O)cc2)C(=O)N[C@H]2CCCCC3CC[C@@H](C(=O)NCCCCNC)N3C2=O)CC1` (stereo partly drawn), for which the IC50 on STAT3 protein (setting [3]) is below 10 µM; in assay [1] it was below 50 µM; in assay [2], below 50 µM.

As for `CCCCCCCCCCCCCCCCN1CCN(CCC(=O)N[C@@H](Cc2ccc(CP(=O)(O)O)cc2)C(=O)N[C@H]2CCCCC3CC[C@@H](C(=O)N[C@@H](CCC(N)=O)C(=O)NCc4ccccc4)N3C2=O)CC1` (stereo partly drawn), the IC50 (on STAT3 protein; in assay [1]; in assay [2]) was above 100 µM throughout.

Regarding `CCCCCCCCCCCCCCCC(=O)N[C@H](Cc1ccc(OCP(=O)(O)O)cc1)C(=O)N[C@H]1CCCCC2CC[C@@H](C(=O)N[C@@H](CCC(N)=O)C(=O)NCc3ccccc3)N2C1=O` (stereo partly drawn), the results for the IC50 (on STAT3 protein; in assay [1]; in assay [2]) were below 5 µM, below 100 µM and below 50 µM, respectively.
